Measured values reported in article PMC6681348 (Biomolecules, 2019).
Entries after “also recorded” stand apart in the source; their conditions may differ. Where two headings read alike, the source gives them in different places. Positions of bridges follow the written chain, without caps; N, C: chain ends. Residues, ends and D or L forms follow the SMILES beside them. No end group written: not given here.

Key:
trypsin [1] = test: Trypsin inhibition assay; assay type: biochemical; settings: substrate Phe-Pro-Arg-AMC; for trypsin inhibitory activity (in words): 16 concentrations, duplicates
Description: (§1) The inhibitory activity of peptides towards trypsin and chymotrypsin was tested the same as detailed in Wang’s study. Peptides were initially prepared in a range of 10^−3–10^−6 M and then diluted to 16 concentrations. Each dilution was tested in duplicates. Additionally, Phe-Pro-Arg-AMC and Succinyl-Ala-Ala-Pro-Phe-NHMec (obtained from Bachem, UK) were served as substrates for trypsin and chymotrypsin, respectively.

chymotrypsin = test: Chymotrypsin inhibition assay; assay type: biochemical; settings: substrate Succinyl-Ala-Ala-Pro-Phe-NHMec, duplicates
Description: as §1

[2] = system: Candida albicans (NCPF 1467); settings: MHB, broth dilution, 1-512 µM two-fold, 5 × 10^5 cfu/mL, seven replicates
Description: (§2) Staphylococcus aureus (NCTC 10788), Escherichia coli (NCTC 10418), and Candida albicans (NCPF 1467) were applied in the antimicrobial test. They all were cultured in Mueller-Hinton Broth (MHB). […] Peptides were incubated with subcultured bacteria cells (5 × 10^5 cfu/mL) and each concentration was performed in seven replicates.

[3] = system: Escherichia coli (NCTC 10418); settings: MHB, broth dilution, 1-512 µM two-fold, 5 × 10^5 cfu/mL, seven replicates
Description: as §2

[4] = system: Staphylococcus aureus (NCTC 10788); settings: MHB, broth dilution, 1-512 µM two-fold, 5 × 10^5 cfu/mL, seven replicates
Description: as §2

horse red blood cells = horse red blood cells 4% v/v, 37 °C, 2 h, concentrations up to 512 µM; 1% Triton X-100 = 100% haemolysis
Description: As described in the previous study, a suspension of horse red blood cells (4%, v/v) (TCS Biosciences, Botolph Claydon, Buckingham, UK) was incubated with peptides of the concentration range of 1 µM to 512 µM at 37 °C for 2 h to determine the peptide haemolytic activity. The positive control employed 1% TritonX-100 (Sigma, UK).

all tested microbes = settings: single loop synthesized alone; cited from earlier work
Text: The results just corresponded to the physicochemical properties of these two peptides.

trypsin [5] = test: trypsin cleavage; settings: cited from earlier work
trypsin [6] = test: trypsin cleavage assay; settings: up to 20 min
trypsin [7] = settings: read-out: Ki, trypsin inhibition; cited from earlier work
Text: Odorous frogs are distributed in East Asia and the surrounding areas, and they are named because of their smelly skin secretion, which plays a fundamental role in defensive systems. To date, hundreds of functional peptides have been isolated from Odorrana skin secretion, not only many potent antimicrobial peptides but also trypsin inhibitors. […] Combined with the data obtained from trypsin cleavage, each segment of both Kunitzin-OV and Kunitzin-RE was cleaved by trypsin via typical cleavage site Lys and Arg. […] Therefore, we assumed that the Lys close to the region of the protease-binding loop could act as a competitive position for trypsin activity ...

## CC(C)C[C@H](NC(=O)[C@H](C)N)C(=O)N[C@@H](CCCCN)C(=O)N[C@@H](Cc1ccc(O)cc1)C(=O)N1CCC[C@H]1C(=O)N[C@@H](Cc1ccccc1)C(=O)N[C@@H](CCCNC(=N)N)C(=O)N[C@H]1CSSC[C@@H](C(=O)O)NC(=O)[C@H](Cc2ccccc2)NC(=O)[C@H](C)NC(=O)[C@H](C)NC(=O)[C@H](Cc2ccccc2)NC1=O [F^9-Kunitzin-OV] (H-ALKYPFRCFAAFC-OH; disulfide 8-13 (inferred); N-terminus and C-terminus assumed)
Trypsin [1]
  trypsin inhibitory activity (in words): undetected; also recorded: disappeared; also recorded: vanished
Trypsin [1]; listed as site-substituted analogue
  trypsin inhibitory activity (in words): eliminated
chymotrypsin; 16 concentrations from 10^-3-10^-6 M, Morrison plot, read-out: Ki, chymotrypsin inhibitory activity
  Ki: 11.8 ± 2.09 µM
chymotrypsin; 16 concentrations
  chymotrypsin inhibitory activity (in words): optimized chymotrypsin inhibitory activity

## CC(C)C[C@H](NC(=O)[C@H](C)N)C(=O)N[C@@H](CCCCN)C(=O)N[C@@H](Cc1ccc(O)cc1)C(=O)N1CCC[C@H]1C(=O)N[C@@H](Cc1ccccc1)C(=O)N[C@@H](CCCNC(=N)N)C(=O)N[C@H]1CSSC[C@@H](C(=O)O)NC(=O)[C@H](Cc2ccccc2)NC(=O)[C@H](C)NC(=O)[C@H](C)NC(=O)[C@H](CCCCN)NC1=O [Kunitzin-OV] (H-ALKYPFRCKAAFC-OH; disulfide 8-13)
[2]
  Minimum Inhibitory Concentration C. albicans: 512 µM
[3]
  Minimum Inhibitory Concentration E. coli: 512 µM
[4]
  Minimum Inhibitory Concentration S. aureus: 512 µM
Horse red blood cells
  haemolytic activity: less than 10%

## -CKAAFC- (disulfide) [single disulfide loop of kunitzins synthesized alone by Chen and colleagues]
All tested microbes
  antimicrobial activity (in words): no activity was observed

## AAKIILNPKFRCKAAFC
Trypsin [5]
  not cleaved: this did not happen to Kunitzin-RE

## ALKYPFRCKAAFC
Trypsin [6]
  fragment found: ALKYPFR, first_seen, 0 min

## AVNIPFKVHFRCKAAFC (disulfide 12-17 (inferred)) [OGTI]
Trypsin [7]
  Ki: 400 nM

B1: ovomucoid inhibitor (chicken): chicken egg white trypsin inhibitor Type III-O, more than 200 amino acid residues, served as a contrast (protein, UniProt P01005 25-210, looked up)
Ovomucoid: AEVDCSRFPNATDKEGKDVLVCNKDLRPICGTDGVTYTNDCLLCAYSIEFGTNISKEHDGECKETVPMNCSSYANTTSEDGKVMVLCNRAFNPVCGTDGVTYDNECLLCAHKVEQGASVDKRHDGGCRKELAAVSVDCSEYPKPDCTAEDRPLCGSDNKTYGNKCNFCNAVVESNGTLTLSHFGKC
Trypsin [1]
  trypsin inhibitory activity (in words): more potent inhibitory activity than Kunitzin-OV
Trypsin [1]; listed as chicken egg white trypsin inhibitor Type III-O
  trypsin inhibitory activity (in words): faster and stronger inhibitory efficacy on trypsin than Kunitzin-OV
Trypsin [1]; Morrison plot, contrast inhibitor
  Ki: 3.49 ± 0.505 nM
